# Patent US5834012A, “Lipid complexed topoisomerase I inhibitors” (Perez-Soler; Roman, priority 1995, dated 1998)
# Values joined by “and” are separate entries in the source; they are usually repeats but may differ in a detail not shown here. Equal entries are not always repeated. “Also recorded” adds a separate entry of the source.
# Columns and labels:
# DIFI cells = assay: MTT cytotoxicity, DIFI cells; format: cell-based, human
# Protocol: (§1) Cell Lines. MDA-Panc3 cells(pancreas carcinoma), DiFi cells (colon carcinoma), and KB cells (squamous carcinoma) were used for in vitro data.
# (§2) Cytotoxicity Assay. 8,000 cells/well in 135 ul of Dubelco's MEM with 10% fetal bovine serum (FBS) was added to 96-well culture plates. The plates were incubated for 14 h at 37° in the presence of 5% CO2. 15 µL of CPT, liposomal CPT (L-CPT), and empty liposomes (ELs) with CPT were added in concentrations of […] CPT. Lipids were added to each sample (5-25:1 lipid:drug weight ratio). The cells were incubated in the presence of drug for 24 to 120 h. After […] of 5 mg/ml MTT in PBS was added to the samples, the cells were incubated at 37° for 2 h. 100 µL of lysis buffer (50 ml DMF, 20 gm SDS, to total volume 100 ml with water, adjusted to pH 4.7 with NaOH) was added to each well. Plates were incubated for 14h at 37°, then read at 570 nm in a kinetic microplate reader. A dose of 0.1 M blank lipid was used as a control for 100% survival.
# (§3) LC-CPT consisting of 12.5:1 DO-NGPE:CPT was used for in vitro assays of cytotoxicity. Lethal cellular injury induced by CPT requires prolonged exposure, cytotoxicity of L-CPT and controls were determined at 24, 72, and 120 hr intervals of continuous drug exposure.
# KB cells = assay: MTT cytotoxicity, KB cells; format: cell-based, human
# Protocol: as §1, §2, §3
# MDA-Panc3 cells = assay: MTT cytotoxicity, MDA-Panc3 cells; format: cell-based, human; details: 24-120 h
# Protocol: as §1, §2, §3
# P388 leukemia = assay: Survival of mice inoculated IP with P388 leukemia; format: in vivo, mouse (B6D2Fl); details: for long-term survivors, percent: FIG. 5b; for % T/C: 24 h after inoculation
# L1210 leukemia = assay: Survival of mice inoculated IP with L1210 leukemia; format: in vivo, mouse (B6D2Fl); details: for % T/C: 24 h after inoculation
# Protocol: In Vivo Protocol. B6D2Fl mice (Charles River Laboratories, Wilmington, Mass., U.S.A.) were injected with […] L1210 leukemia cells via the intraperitoneal route. A single intraperitoneal treatment with ELs, CPT, L-CPT, ELs +CPT was administered 24 hours after tumor inoculation. Five animals were used in each group except for the control group which consisted of 7 untreated mice.
# Statistical Considerations. Animal survival data was plotted using the method described by Kaplan and Meier (Kaplan and Meier, 1958):
# Because LC-CPT appeared to have improved potency compared to free CPT and LC-CPT caused early death at the highest doses, mice inoculated with L1210 leukemia were treated with doses of 30 to 60 mg/kg free CPT or 10 to 20 mg/kg of LC-CPT (Table 6). […] One animal treated with 15 mg/kg free CPT plus lipid survived 50 days.
# [1] = Organ distribution after i.v. administration; format: in vivo, mice
# Solubility of CPT = format: physicochemical
# From the text: Some lipophilic drugs such as taxol and taxotere can be solubilized by mild detergents, surfactants and alcohol- containing solutions; however, no similar vehicle has been identified for CPT lactone. […] Solutions containing chloroform and methanol can solubilize CPT, but are too toxic for clinically relevant studies.
# [2] = it has been shown; cited from earlier work
# [3] = Lipids screened for complexation with CPT (fluorescent microscopy; % bound); format: physicochemical
# From the text: In order to prepare LC-CPT (a liposomal preparation containing CPT within spherical lipid vesicles) various individual lipids were screened for complexation with CPT. […] CPT crystals and lipid/CPT complexes of >0.4 microns can be visualized under a fluorescent microscope (since CPT fluoresces due to its rigid ring structure). […] Therefore, the better a lipid complexes with CPT the less CPT crystals are formed, and the more lipid/CPT complexes are formed.
# Drug/lipid Complex Preparation. CPT was mixed in ratios of from 2:1 to 25:1 w/w lipid:drug in chloroform-methanol (8:1). For studies where CPT was radiolabeled, approximately 0.02 uCi/ml [^3 H] CPT was added to the preparation. Trace quantities of ^14 C labeled cholesterol was added to samples requiring lipid labeling. For small samples, the lipids were dried in 12×75 mm culture tubes under a stream of nitrogen gas. For large samples, a rotavapor (Buchi RE140, Switzerland) was used to dry lipids in a 100 to 1000 ml round bottom flasks. […] For liposomal CPT 0.9% Nace was used. Preparations were screened for lipid entrapment by light and fluorescent microscopy (Nikon Labophot-2, Japan). […]
# Lipids of varying carbon chain length, charge, and saturation, alone or in different combinations, were empirically screened for their ability to form liposomes incorporating CPT by fluorescent microscopy.
# [4] = Chromatographic evaluation of CPT in the liposome fraction; format: physicochemical; details: lipid used alone
# Protocol: Chromatography. A 30 cm agarose 0.5M column is used to separate liposome-bound drug from free CPT. PBS is used as the mobile phase for all preparations. Twenty samples were collected in 3 mL aliquots for a total of 60 mLs. Fluorescence and scintigraphy were used to detect encapsulated and free drug. Fluorimetry. Aliquots of 20 μl from each collection tube were transferred to cuvets containing 2 ml methanol. Fluorimetry was performed as described by Hart et al. (Hart et al., 1969). Fluorescence was measured at an excitation wavelength of 370 nm and emission wavelength of 434 nm (Perkin-Elmer MPF44A, Norwalk, Conn., U.S.A.). Two ml of ethanol was used as a control for machine calibration.
# Chromatographic evaluation confirmed that <5% of CPT was incorporated in the liposome fraction of the preparation, the rest presumably being solubilized or in small particles not detectable by fluorescence microscopy.
# (§4) These observation led the present inventors to other negatively charged lipids. […] Chromatographic evaluation of these preparations confirmed again that <5% of CPT eluted with the liposome fraction, the rest of the drug eluting later in a large number of consecutive fractions. By differential centrifugation, the lipid-binding efficiency of cardiolipin was about 67% and that of DO-NGPE 97%. DO-NGPE-CPT was, therefore, selected for further biological and pharmacological studies.
# [5] = Lipid-binding efficiency by differential centrifugation; format: physicochemical
# Protocol: Determination of Entrapment Efficiency.
# A modification of the Ficoll flotation method for separating entrapped from free drug was used (Fraley et al.). […] samples were added to 12×75 mm culture tubes. One ml of 30% Ficoll was layered on the liposome preparation, then one ml of PBS was layered on top of the Ficoll. The tube was spun for 30 min at 3400 rpm in Sorvall GS2-B swing rotor. The percent entrapment was calculated with the formula: [formula]
# as §4
# [6] = system: KB, MDA-Panc3, and DIFI cell lines; assay: MTT cytotoxicity, KB, MDA-Panc3 and DIFI cell lines taken together; format: cell-based, human
# Protocol: as §1, §2, §3
structure (smiles),measurement,setting,value
"CC[C@@]1(O)C(=O)OCc2c1cc1n(c2=O)Cc2cc3ccccc3nc2-1 [CPT, Camptothecin]",cytotoxicity (in words),DIFI cells; 24-120 h,significantly more toxic to cells at a concentration of 1M compared to 0.1M
same,cellular viability,DIFI cells; 120 h,approximately 40%
same,cytotoxicity (in words),KB cells; 24 h,somewhat more sensitive to CPT at 24 h than DIFI cells
same,cellular viability,KB cells; 120 h,approximately 40%
same,cytotoxicity (in words),MDA-Panc3 cells,modestly sensitive; also recorded: significantly more toxic to cells at a concentration of 1 μmol compared to 0.1 μmol; also recorded: somewhat more sensitive to CPT at 24 h than DIFI cells
same,"long-term survivors, percent","P388 leukemia; IP, 20 mg/Kg",20%
same,"long-term survivors, percent","P388 leukemia; IP, 40 mg/Kg",60%
same,treatment-related deaths / toxicity at 40 mg/kg,"P388 leukemia; IP, 40 mg/kg CPT",one treatment related death (day 8)
same,"antitumor activity, P388 (in words)","P388 leukemia; P388, IP",No activity
same,50-day survivors,"P388 leukemia; P388, IP, 10 mg/kg CPT",none
same,% T/C,"P388 leukemia; P388, IP, 10 mg/kg CPT",121%
same,50-day survivors,"P388 leukemia; P388, IP, 20 mg/kg CPT",none
same,% T/C,"P388 leukemia; P388, IP, 20 mg/kg CPT",100%
same,50-day survivors / long-term survivors,"P388 leukemia; P388, IP, 40 mg/kg CPT, 40 mg/kg",3 and 3/5
same,"%T/C, similar antitumor activity compared","P388 leukemia; P388, IP, dose not given",207%
same,"antitumor activity / survival, L1210 (in words)",L1210 leukemia,inactive
same,50-day survivors,L1210 leukemia; 30 mg/kg CPT,0
same,% T/C,L1210 leukemia; 30 mg/kg CPT,85%
same,50-day survivors,L1210 leukemia; 45 mg/kg CPT,0
same,% T/C,L1210 leukemia; 45 mg/kg CPT,85%
same,50-day survivors,L1210 leukemia; 60 mg/kg CPT,0
same,% T/C,L1210 leukemia; 60 mg/kg CPT,92%
same,GI Tract level,"[1]; 6 hrs, i.v. 10 mg/kg CPT",2.562 ± 0.515 μg/ml or μg/mg dry tissue
same,Heart level,"[1]; 6 hrs, i.v. 10 mg/kg CPT",1.458 ± 0.555 μg/ml or μg/mg dry tissue
same,Kidney level,"[1]; 6 hrs, i.v. 10 mg/kg CPT",0.443 ± 0.164 μg/ml or μg/mg dry tissue
same,Liver level,"[1]; 6 hrs, i.v. 10 mg/kg CPT",2.077 ± 0.402 μg/ml or μg/mg dry tissue
same,Lung level,"[1]; 6 hrs, i.v. 10 mg/kg CPT",38.217 ± 3.061 μg/ml or μg/mg dry tissue
same,GI Tract level,"[1]; 24 hrs, i.v. 10 mg/kg CPT",0.492 ± 0.148 μg/ml or μg/mg dry tissue
same,Heart level,"[1]; 24 hrs, i.v. 10 mg/kg CPT",0.228 ± 0.092 μg/ml or μg/mg dry tissue
same,Kidney level,"[1]; 24 hrs, i.v. 10 mg/kg CPT",0.539 ± 0.428 μg/ml or μg/mg dry tissue
same,Liver level,"[1]; 24 hrs, i.v. 10 mg/kg CPT",0.429 ± 0.124 μg/ml or μg/mg dry tissue
same,Lung level,"[1]; 24 hrs, i.v. 10 mg/kg CPT",12.276 ± 5.363 μg/ml or μg/mg dry tissue
same,"drug level in the lungs, free CPT relative to LC-CPT",[1]; i.v.,about 180 -fold
same,biodistribution / clearance (in words),"[1]; i.v., mice, listed as free CPT",rapidly cleared from the blood; also recorded: Heart and kidney levels of free CPT were higher than those of LC-CPT
same,concentration at 6 h,"[1]; mouse, in vivo, iv, 6 hrs, i.v. 10 mg/kg CPT, read-out: Blood level",69 ± 39 ng/mL
same,concentration at 24 h,"[1]; mouse, in vivo, iv, 24 hrs, i.v. 10 mg/kg CPT, read-out: Blood level",8 ± 12 ng/mL
same,aqueous solubility (in words),Solubility of CPT,poor aqueous solubility
same,"solubility in DMSO, Tween-20, cremophor, and methanol (in words)",Solubility of CPT; CPT lactone,crystallization and precipitation of drug occurs
same,activity of closed-lactone form relative to sodium salt,[2],10 fold
"CCCCCCCC/C=C\CCCCCCCC(=O)OCC(COP(=O)(O)OCCNC(=O)CCCC(=O)O)OC(=O)CCCCCCC/C=C\CCCCCCCC (centres unmarked) [Dioleoyl-NGPE, dioleoyl-N-glutaryl-phosphatidyl ethanolamine]",Crystals,"[3]; Table 1, lipid alone with CPT, fluorescent microscopy",no
same,interaction with CPT (in words),[3]; listed as DO-NGPE,homogeneous and milky preparations devoid of drug crystals; also recorded: most favorable interaction
same,CPT incorporated in / eluted with the liposome fraction,[4],< 5%
same,lipid-binding efficiency,[5],97%
same,antitumor activity in vitro (in words),[6],does not appear to have any intrinsic antitumor activity and does not inhibit the effects of CPT
